Results: patent EP4603105A1, “PHARMACEUTICAL COMPOSITION CONTAINING CYCLIC COMPOUND HAVING SELECTIVE KRAS INHIBITORY EFFECT AGAINST HRAS AND NRAS” (CHUGAI SEIYAKU KABUSHIKI KAISHA, priority 2022, dated 2024)
*1 amine or outer side, *2 acyl side, *3 side chain or, on linkers, in order; H or OH if unused. Where a SMILES comes first, the peptide text is derived from it. Bridges are numbered along the chain shown (N, C = ends). [ ]: non-standard residue; d: D form. The star is where a group is joined. hPhe(3,5-F2-4-CF3) = N[C@@H](CCc1cc(F)c(C(F)(F)F)c(F)c1)C(=O)O; hPhe(3-Cl-4-CF3) = N[C@@H](CCc1ccc(C(F)(F)F)c(Cl)c1)C(=O)O; NPrPhe(4-CF3) = CCCN[C@@H](Cc1ccc(C(F)(F)F)cc1)C(=O)O; X14 = COCCN([C@@H](Cc1ccc(C)cc1)C(=O)[*:2])[*:1]; NMeGly(cPent) = CN[C@H](C(=O)O)C1CCCC1; Ac4c(3,3-F2) = NC1(C(=O)O)CC(F)(F)C1; NMeD = CN[C@@H](CC(=O)O)C(=O)O; NMeL = CN[C@@H](CC(C)C)C(=O)O; Morpholide = C1CN(*)CCO1; NMeA = CN[C@@H](C)C(=O)O; Ac5c = NC1(C(=O)O)CCCC1; Aze = O=C(O)[C@@H]1CCN1; Sar = CNCC(=O)O

Key:
[1] = target: GDP-bound NRAS wild-type protein (Homo sapiens, UniProt P01111); experiment: Binding to NRAS by surface plasmon resonance (SPR), KD and KD ratio to KRAS
Chain of GDP-bound NRAS wild-type protein (P01111 whole entry): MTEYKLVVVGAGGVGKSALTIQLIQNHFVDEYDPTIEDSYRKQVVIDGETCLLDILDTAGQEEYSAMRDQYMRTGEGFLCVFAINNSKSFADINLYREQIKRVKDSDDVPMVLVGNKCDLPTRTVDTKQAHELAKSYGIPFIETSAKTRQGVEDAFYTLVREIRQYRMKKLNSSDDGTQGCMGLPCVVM
Summary of the method: (§1)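 Biotinylated GDP-bound RAS was captured at about 100–300 RU. Running buffer: HBS pH 7.4, 10 mM MgCl2, 10 µM GDP, 1 mM DTT, 0.01% Tween 20, 4% DMSO.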

[2] = target: HRAS wild-type protein (Homo sapiens, UniProt P01112); experiment: Binding to HRAS by surface plasmon resonance (SPR), KD and KD ratio to KRAS
Chain of HRAS wild-type protein (P01112 whole entry): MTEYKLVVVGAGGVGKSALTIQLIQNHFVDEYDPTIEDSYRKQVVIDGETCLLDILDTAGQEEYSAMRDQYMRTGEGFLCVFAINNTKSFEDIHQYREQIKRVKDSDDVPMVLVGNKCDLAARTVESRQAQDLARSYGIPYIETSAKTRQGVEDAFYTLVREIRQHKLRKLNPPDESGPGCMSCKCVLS
Summary of the method: as §1

[3] = system: human lung cancer strain NCI-H441; format: cell-based
Summary of the method: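 Step one: dispense the test compound in serial DMSO dilutions. Step three: add the reagent and measure […].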

[4] = ratio of KD for GDP-bound NRAS wild-type protein to KD for KRAS
[5] = ratio of KD for HRAS wild-type protein to KD for KRAS
[6] = ratio of the KD value with respect to GDP-bound NRAS wild-type protein to the KD value with respect to KRAS
[7] = ratio of the KD value with respect to HRAS wild-type protein to the KD value with respect to KRAS

| SMILES | IC50 [3] | NRAS /KRAS [1, 4] | HRAS /KRAS [2, 5] | NRAS /KRAS [1, 6] | HRAS /KRAS [2, 7] | NRAS /KRAS ([1]; ratio of KD with respect to GDP-bound NRAS wild-type protein to KD with respect to KRAS) | HRAS /KRAS ([2]; ratio of KD with respect to HRAS wild-type protein to KD with respect to KRAS) |
| --- | --- | --- | --- | --- | --- | --- | --- |
| CCCOC[C@H]1C(=O)N[C@@H]([C@@H](C)CC)C(=O)N2CCC[C@H]2C(=O)N(C)[C@H]2C/C=C\CCN(C2=O)[C@@H](Cc2ccc(C)cc2)C(=O)N(C)CC(=O)N[C@@H](CCc2ccc(C(F)(F)F)c(OC)c2)C(=O)N2C[C@H](OCC)C[C@H]2C(=O)N(C)C2(CCC2)C(=O)N(C)[C@@H](C2CCCC2)C(=O)N(C)[C@H](C(=O)N(C)C)CC(=O)N1C [PP2334] | 5.7 nM |  |  | A (a compound having 10 or more and less than 20 is denoted as A) | B (a compound having 3 or more and less than 10 is denoted as B) |  |  |
| CCO[C@@H]1C[C@H]2C(=O)NC3(CCC3)C(=O)N(C)[C@@H](C3CCCC3)C(=O)N(C)[C@H](C(=O)N(C)C)CC(=O)N(C)[C@@H](CCC(F)F)C(=O)N[C@@H]([C@@H](C)CC)C(=O)N(C)CC(=O)N(C)[C@H]3C/C=C\CCN(C3=O)[C@@H](Cc3ccc(C(F)(F)F)cc3)C(=O)N(C)CC(=O)N[C@@H](CCc3cc(F)c(C(F)(F)F)c(F)c3)C(=O)N2C1 [PP1121] | 17.3 nM | A (a compound having 10 or more and less than 20 is denoted as A) | A (a compound having 10 or more and less than 20 is denoted as A) |  |  |  |  |
| CCO[C@@H]1C[C@H]2C(=O)NC3(CCC3)C(=O)N(C)[C@@H](C3CCCC3)C(=O)N(C)[C@H](C(=O)N(C)CCOC)CC(=O)N(C)[C@@H](CC3CC3)C(=O)N[C@@H]([C@@H](C)CC)C(=O)N(C)CC(=O)N(C)[C@H]3C/C=C\CCN(C3=O)[C@@H](Cc3ccc(C(F)(F)F)cc3)C(=O)N(C)CC(=O)N[C@@H](CCc3ccc(C(F)(F)F)c(OC)c3)C(=O)N2C1 [PP1327] | 12.4 nM |  |  |  |  | A (a compound having 10 or more and less than 20 is denoted as A) | A (a compound having 10 or more and less than 20 is denoted as A) |

Further lines, with some results ahead:

| IC50 [3] | SMILES | NRAS /KRAS [1, 4] | HRAS /KRAS [2, 5] | NRAS /KRAS [1, 6] | HRAS /KRAS [2, 7] | NRAS /KRAS ([1]; ratio of KD with respect to GDP-bound NRAS wild-type protein to KD with respect to KRAS) | HRAS /KRAS ([2]; ratio of KD with respect to HRAS wild-type protein to KD with respect to KRAS) |
| --- | --- | --- | --- | --- | --- | --- | --- |
| 6.5 nM | CCCN1C(=O)[C@@H]2CCN2C(=O)CN(C)C(=O)[C@H]([C@@H](C)CC)NC(=O)[C@H](CC(C)C)N(C)C(=O)C[C@@H](C(=O)N2CCOCC2)N(C)C(=O)[C@H](C2CCCC2)N(C)C(=O)C2(CC(F)(F)C2)NC(=O)[C@@H]2CCCN2C(=O)[C@H](CCc2cc(F)c(C(F)(F)F)c(F)c2)NC(=O)CN(C)C(=O)[C@@H]1Cc1ccc(C(F)(F)F)cc1 [PP0802] ([NMeL]I[Sar][Aze][NPrPhe(4-CF3)][Sar][hPhe(3,5-F2-4-CF3)]P[Ac4c(3,3-F2)][NMeGly(cPent)][NMeD]-Morpholide; lactam N-11) | C (A compound having a KD ratio of 0.1 or more and less than 3 is denoted as C) | B (a compound having 3 or more and less than 10 is denoted as B) |  |  |  |  |
| 40.2 nM | CCC[C@H]1C(=O)N[C@@H]([C@@H](C)CC)C(=O)N(C)CC(=O)N(C)[C@H]2CCCCCN(C2=O)[C@@H](Cc2ccc(C(F)(F)F)cc2)C(=O)N(C)CC(=O)N[C@@H](CCc2cc(F)c(C(F)(F)F)c(F)c2)C(=O)N2C[C@H](OCC)C[C@H]2C(=O)NC2(CCC2)C(=O)N(C)[C@@H](C2CCCC2)C(=O)N(C)[C@H](C(=O)N2CCOCC2)CC(=O)N1C [PP0679] |  |  | B (a compound having 3 or more and less than 10 is denoted as B) | B (a compound having 3 or more and less than 10 is denoted as B) |  |  |
| 3.7 nM | CC[C@H](C)[C@@H]1NC(=O)[C@H](CC(C)C)N(C)C(=O)C[C@@H](C(=O)N2CCOCC2)N(C)C(=O)[C@H](C2CCCC2)N(C)C(=O)C2(CCCC2)NC(=O)[C@@H]2CCCN2C(=O)[C@H](CCc2ccc(C(F)(F)F)c(Cl)c2)NC(=O)CN(C)C(=O)[C@H](Cc2ccc(C)cc2)N(CCOC)C(=O)[C@@H]2CCN2C(=O)[C@H](C)N(C)C1=O [PP0092] ([NMeL]I[NMeA][Aze][X14][Sar][hPhe(3-Cl-4-CF3)]P[Ac5c][NMeGly(cPent)][NMeD]-Morpholide; lactam N-11) | C (A compound having a KD ratio of 0.1 or more and less than 3 is denoted as C) | C (A compound having a KD ratio of 0.1 or more and less than 3 is denoted as C) |  |  |  |  |
| 275 nM | CC[C@H](C)[C@@H]1NC(=O)[C@H](CC(C)C)N(C)C(=O)C[C@@H](C(=O)N2CCOCC2)N(C)C(=O)[C@H](C2CCCC2)N(C)C(=O)C2(CCC2)NC(=O)[C@@H]2C[C@@H](OCC3CC3)CN2C(=O)[C@H](CCc2cc(F)c(C(F)(F)F)c(F)c2)NC(=O)CN(C)C(=O)[C@H](Cc2ccc(C(F)(F)F)cc2)N2CCCCC[C@@H](C2=O)N(C)C(=O)CN(C)C1=O [PP1005] | A (a compound having 10 or more and less than 20 is denoted as A) | A (a compound having 10 or more and less than 20 is denoted as A) |  |  |  |  |
